{"source": "EPA's ToxValDB 9.5 (doi:10.2903/j.efsa.2009.205r)", "key": {"Tagia sp.": {"tested_on": "Tagia sp.", "settings": "for LC50: acute, duration: 14 days, mortality"}, "Apis mellifera": {"tested_on": "Apis mellifera", "settings": "acute, mortality"}, "Typhlodromus pyri": {"tested_on": "Typhlodromus pyri", "test": "LR50; higher = less toxic", "settings": "not reported; mortality"}, "Plant": {"tested_on": "Plant", "settings": "chronic/long-term; duration: 14 days"}, "Daphnia magna": {"tested_on": "Daphnia magna", "settings": "chronic/long-term; duration: 21 days; reproduction"}, "Landoltia sp.": {"tested_on": "Landoltia sp.", "settings": "chronic/long-term; duration: 14 days"}, "Bibionidae": {"tested_on": "Bibionidae", "settings": "chronic/long-term; duration: 28 days"}}, "data": [{"smiles": "C[C@@H](Oc1ccc(Oc2cnc3cc(Cl)ccc3n2)cc1)C(=O)OCC1CCCO1", "note": "(stereo partly drawn) [Quizalofop P tefuryl]", "values": [{"measurement": "LD50", "setting": "Rattus norvegicus; acute, oral, mortality", "result": 1010, "unit": "mg/kg-day"}, {"measurement": "NOAEL", "setting": "Rattus norvegicus; chronic, duration: 2 years, oral, diet", "result": 1.3, "unit": "mg/kg-day"}, {"measurement": "NOAEL", "setting": "Rattus norvegicus; reproduction developmental, mortality", "result": 10, "unit": "mg/kg-day"}, {"measurement": "NOAEL", "setting": "Rattus norvegicus; reproduction developmental, reproduction", "result": 16.9, "unit": "mg/kg-day"}, {"measurement": "NOAEL", "setting": "Rattus norvegicus; subchronic, duration: 90 days, oral, organ weight", "result": 1.7, "unit": "mg/kg-day"}, {"measurement": "LD50", "setting": "Anas platyrhynchos; acute, oral, unspecified, mortality", "result": "> 2150", "unit": "mg/kg"}, {"measurement": "NOEC", "setting": "Anas platyrhynchos; reproductive", "result": 68.7, "unit": "mg/kg-day"}, {"measurement": "LC50", "setting": "Anas platyrhynchos; short-term, oral, feed, mortality", "result": "> 259", "unit": "mg/kg-day"}, {"measurement": "LC50", "setting": "Tagia sp.", "result": 16.9, "unit": "mg/kg"}, {"measurement": "LC50", "setting": "Colinus virginianus; acute, oral, diet, mortality", "result": "> 487", "unit": "mg/kg-day"}, {"measurement": "LD50", "setting": "Colinus virginianus; acute, oral, mortality", "result": "> 2150", "unit": "mg/kg"}, {"measurement": "NOEC", "setting": "Colinus virginianus; reproduction developmental", "result": 69.4, "unit": "mg/kg-day"}, {"measurement": "LD50", "setting": "Apis mellifera; dermal", "result": "> 100", "unit": "µg/piece"}, {"measurement": "LD50", "setting": "Apis mellifera; oral, unspecified", "result": 16.8, "unit": "µg/piece"}, {"measurement": "LR50", "setting": "Typhlodromus pyri", "result": "< 100", "unit": "g/ha"}]}, {"smiles": "CC(Oc1ccc(Oc2cnc3cc(Cl)ccc3n2)cc1)C(=O)O", "note": "(stereo not drawn) [Quizalofop]", "values": [{"measurement": "NOEC", "setting": "Plant", "result": 0.094, "unit": "mg/L"}, {"measurement": "LC50", "setting": "Oncorhynchus mykiss; acute, duration: 96 hours, mortality", "result": "> 100", "unit": "µg/mL"}, {"measurement": "NOEC", "setting": "Oncorhynchus mykiss; chronic/long-term, duration: 28 days, growth", "result": 46.2, "unit": "mg/L"}, {"measurement": "LC50", "setting": "Tagia sp.", "result": 948, "unit": "mg/kg"}, {"measurement": "NOEC", "setting": "Tagia sp.; chronic/long-term", "result": "> 50", "unit": "mg/kg"}, {"measurement": "NOEC", "setting": "Daphnia magna", "result": 0.82, "unit": "mg/L"}, {"measurement": "NOEC", "setting": "Landoltia sp.", "result": 3.2, "unit": "mg/L"}, {"measurement": "NOEC", "setting": "Bibionidae", "result": 35.7, "unit": "mg/L"}]}]}
